The values that follow come from patent US11690833B2, “Personal care compositions” (priority 2017, dated 2023).

One series relates to oral bacteria. Kind of series: Alamar Blue evaluation of antibacterial efficacy in the presence of the anionic surfactant SLS. It counts as cell-based, human saliva. As to conditions: 10 mg active + 20 mg of 30 weight % SLS solution + 5 ml oral bacteria solution, 37° C., 1 hour after addition of Alamar Blue dye, color change from blue to red indicates live bacteria. How it is done:
In particular, the antibacterial efficacy of a CPC—ZnCl2 complex was compared to ZnCl2 and CPC individually, in the presence of SLS, as follows: human saliva was collected and diluted three times with deionized water, centrifuged, and decanted to yield a translucent solution of oral bacteria. […] A negative control was also prepared adding 20 mg (+/−0.9 mg) of the 30 weight % SLS aqueous solution and 5 ml of the prepared oral bacteria solution to deionized water instead of the antibacterial ingredient. The samples were then placed in a 37° C. oven and shaken at 100 RPM for 30 minutes. 200 μL of Alamar Blue dye was then added to each sample and placed back in the 37° C. oven and shaken at 100 RPM. The samples were then monitored every 30 minutes, with the results 1 hour after addition of the dye recorded in Table 1. Under an Alamar Blue assay, a color change from blue to red indicates the presence of live bacteria.

Like-named read-outs stand apart in the source and are kept apart here.

Turning to `[Cl-].[Cl-].[Zn+2]` [ZnCl2, zinc chloride], the “Color of Solution” value with oral bacteria is “Purple”.
For `CCCCCCCCCCCCCCCC[n+]1ccccc1` [CPC, cetylpyridinium chloride], the “Color of Solution” value in the series with oral bacteria was “pink and Pink”.
For the compound `CCCCCCCCCCCCCCCC[n+]1ccccc1.CCCCCCCCCCCCCCCC[n+]1ccccc1.[Cl][Zn-2]([Cl])([Cl])[Cl]` [CPC-ZnCl2 complex], the “Color of Solution” value in the series on oral bacteria was “Blue”; in the series on oral bacteria (listed as CPC—ZnCl2 complex) it was “blue”. Further, the solubility in water result (0.1 weight % solution, room temperature (23-24° C.)) is reported as “soluble”; the solubility in water entry (0.5 weight % solution, room temperature (23-24° C.)) is given as “soluble”; the solubility in water entry (1.0 weight % solution, physiological temperature (36-37° C.)) was “soluble”; the solubility in water entry (1.0 weight % solution, room temperature (23-24° C.), after 24 hours of aging) is given as “undissolved”; the solubility in water result (10 weight % solution, physiological temperature (36-37° C.)) was “not fully soluble”; the solubility in water result (10.0 weight % solution, room temperature (23-24° C.), after 24 hours of aging) is on record as “undissolved”. In addition, the “reduction in solubility compared to the CPC and ZnCl2 reactants separately” value (water) was not below 25 fold.
